Structures are written as SMILES. Values after ≈ are worked out from the molar mass of the structure shown. Where only a bound is given, the exact number is not on record here.

Common to all, as to format: functional
Experiment [1] relates to Enterococcus faecalis. The experiment in a line: Antibacterial activity against linezolid-resistant Enterococcus faecalis.
Experiment [2] concerns Enterococcus faecium. The experiment in a line: Antibacterial activity against vancomycin-resistant Enterococcus faecium.
Experiment [3] relates to Staphylococcus aureus. The experiment is described as follows: Antibacterial activity against methicillin-sensitive Staphylococcus aureus.
Experiment [4] deals with Staphylococcus aureus. The experiment is described as follows: Antibacterial activity against methicillin-resistant Staphylococcus aureus.
The test system of experiment [5] is Staphylococcus aureus. The experiment is described as follows: Antibacterial activity against Staphylococcus aureus ATCC 29213.
In experiment [6] the test system is Staphylococcus aureus. The experiment is described as follows: Antibacterial activity against hospital acquired methicillin-resistant Staphylococcus aureus clinical isolates.
Experiment [7] relates to Staphylococcus aureus. The experiment in a line: Antibacterial activity against hospital acquired methicillin-sensitive Staphylococcus aureus clinical isolates.
Experiment [8] deals with Enterococcus faecalis. The experiment is described as follows: Antibacterial activity against hospital acquired linezolid-resistant Enterococcus faecalis clinical isolates.
The test system of experiment [9] is Enterococcus faecium. The experiment in a line: Antibacterial activity against hospital acquired vancomycin-resistant Enterococcus faecium clinical isolates.
A further experiment deals with Enterococcus. The experiment in a line: Antibacterial activity against Enterococcus.
For another experiment, the system named is Staphylococcus. The experiment is described as follows: Antibacterial activity against Staphylococcus.
The test system of a further experiment is Streptococcus. The experiment in a line: Antibacterial activity against Streptococcus.

On to `CC(=O)NC[C@H]1CN(c2ccc(-c3ccc(-c4cc5n(n4)CCNC5)cc3)c(F)c2)C(=O)O1`, for which the MIC (usually the lowest concentration found to suppress growth) was 2 µg/mL (≈ 4.45 µM) against Enterococcus faecalis [1]; 0.5 µg/mL (≈ 1.11 µM) with Enterococcus faecium [2]; 2 µg/mL (≈ 4.45 µM) in the experiment with Staphylococcus aureus [3]; 2 µg/mL (≈ 4.45 µM) against Staphylococcus aureus [4]; 2 µg/mL (≈ 4.45 µM) in the experiment on Staphylococcus aureus [5].

Turning to `CC(=O)NC[C@H]1CN(c2ccc(-c3ccc(-c4nc5n(n4)CCN(C)C5)cc3)c(F)c2)C(=O)O1`, the MIC amounted to 2 µg/mL (≈ 4.31 µM) in the experiment on Enterococcus faecalis [1]; 1 µg/mL (≈ 2.15 µM) against Enterococcus faecium [2]; 1 µg/mL (≈ 2.15 µM) in the experiment with Staphylococcus aureus [3]; 1 µg/mL (≈ 2.15 µM) with Staphylococcus aureus [4]; 1 µg/mL (≈ 2.15 µM) against Staphylococcus aureus [5].

Consider `CC(=O)NC[C@H]1CN(c2ccc(-c3ccc(-c4nc5cnccn5n4)cc3)c(F)c2)C(=O)O1`, for which the MIC against Enterococcus faecalis [1], with Enterococcus faecium [2], against Staphylococcus aureus [6], against Staphylococcus aureus [3], in the experiment with Staphylococcus aureus [7] and against Staphylococcus aureus [4] was 0.5 µg/mL (≈ 1.12 µM) throughout. Moreover, the MIC in the experiment with Enterococcus faecalis [8], against Staphylococcus aureus [5] and against Enterococcus faecium [9] was 0.5 µg/mL (≈ 1.12 µM) throughout.

As to `CC(=O)NC[C@H]1CN(c2ccc(-c3ccc(-c4nnc5cnccn45)cc3)c(F)c2)C(=O)O1`, the MIC in the experiment on Enterococcus faecalis [1], in the experiment with Enterococcus faecium [2], with Staphylococcus aureus [3], with Staphylococcus aureus [4] and with Staphylococcus aureus [5] was 1 µg/mL (≈ 2.24 µM) throughout.

In the case of `CC(=O)NC[C@H]1CN(c2ccc(-c3ccc(-c4nc5ccccn5n4)cc3)c(F)c2)C(=O)O1`, the MIC was 1 µg/mL (≈ 2.24 µM) against Enterococcus faecalis [1]; 0.5 µg/mL (≈ 1.12 µM) in the experiment on Enterococcus faecium [2]; 2 µg/mL (≈ 4.49 µM) in the experiment on Staphylococcus aureus [3]; 1 µg/mL (≈ 2.24 µM) with Staphylococcus aureus [4]; 2 µg/mL (≈ 4.49 µM) against Staphylococcus aureus [5].

As to `CC(=O)NC[C@H]1CN(c2ccc(-c3ccc(-c4nc5n(n4)CCNC5)cc3)c(F)c2)C(=O)O1`, the MIC with Enterococcus faecalis [1] was 1 µg/mL (≈ 2.22 µM); in the experiment on Enterococcus faecium [2], 1 µg/mL (≈ 2.22 µM); in the experiment on Staphylococcus aureus [3] it was 1 µg/mL (≈ 2.22 µM); against Staphylococcus aureus [4], 2 µg/mL (≈ 4.44 µM); against Staphylococcus aureus [5], 2 µg/mL (≈ 4.44 µM).

Turning to `CC(=O)NC[C@H]1CN(c2ccc(-c3ccc(-c4nnc5ccccn45)cc3)c(F)c2)C(=O)O1`, the MIC against Enterococcus faecalis [1] was determined as 1 µg/mL (≈ 2.24 µM); against Enterococcus faecium [2] it was 2 µg/mL (≈ 4.49 µM); in the experiment on Staphylococcus aureus [3] it was 1 µg/mL (≈ 2.24 µM); in the experiment with Staphylococcus aureus [4] it was 2 µg/mL (≈ 4.49 µM); against Staphylococcus aureus [5], 2 µg/mL (≈ 4.49 µM).

Regarding `CC(=O)NC[C@H]1CN(c2ccc(-c3ccc(-c4cc5n(n4)CCN(C)C5)cc3)c(F)c2)C(=O)O1`, the MIC is 1 µg/mL (≈ 2.16 µM) with Enterococcus faecalis [1]; 0.5 µg/mL (≈ 1.08 µM) against Enterococcus faecium [2]; 1 µg/mL (≈ 2.16 µM) with Staphylococcus aureus [3]; 1 µg/mL (≈ 2.16 µM) in the experiment on Staphylococcus aureus [4]; 1 µg/mL (≈ 2.16 µM) with Staphylococcus aureus [5].

Turning to `CC(=O)NC[C@H]1CN(c2ccc(N3CCOCC3)c(F)c2)C(=O)O1` [LINEZOLID], the MIC against Enterococcus faecalis [1] is greater than 16 µg/mL; with Enterococcus faecium [2], 2 µg/mL (≈ 5.93 µM); in the experiment with Staphylococcus aureus [6] it was 1 µg/mL (≈ 2.96 µM); with Staphylococcus aureus [3], 1 µg/mL (≈ 2.96 µM); in the experiment with Staphylococcus aureus [7], 1 µg/mL (≈ 2.96 µM); against Staphylococcus aureus [4], 1 µg/mL (≈ 2.96 µM). The results for the MIC in the experiment on Enterococcus faecalis [8], in the experiment on Staphylococcus aureus [5] and in the experiment with Enterococcus faecium [9] were greater than 16 µg/mL, 1 µg/mL (≈ 2.96 µM) and 1 µg/mL (≈ 2.96 µM), respectively.

For the compound `CC(=O)NC[C@H]1CN(c2ccc(-c3ccc(CNCc4cnn[nH]4)cc3)c(F)c2)C(=O)O1` [RADEZOLID], the MIC stood at 0.5 µg/mL (≈ 1.14 µM) in the experiment on Enterococcus faecalis [1]; 0.5 µg/mL (≈ 1.14 µM) with Enterococcus faecium [2]; 0.125 µg/mL (≈ 0.285 µM) against Enterococcus; 0.5 µg/mL (≈ 1.14 µM) with Staphylococcus aureus [3]; 0.125 µg/mL (≈ 0.285 µM) in the experiment with Staphylococcus; 0.125 µg/mL (≈ 0.285 µM) against Streptococcus. The MIC against Staphylococcus aureus [4] and with Staphylococcus aureus [5] was 0.5 µg/mL (≈ 1.14 µM) throughout.

The record behind these values is ChEMBL document CHEMBL4680286, “Design, synthesis and antibacterial evaluation of novel oxazolidinone derivatives nitrogen-containing fused heterocyclic moiety” (2021).
